Data: PubChem BioAssay (NCI)
Several values for one entry are separate records, joined by “and”; a condition that tells them apart may be missing. Equal values may be shown once.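 Cells were grown in 96-well plates and exposed to each compound for 48 hours at five concentrations; endpoints were interpolated linearly between bracketing concentrations, or set to the highest concentration if not reached. Here, GI50 denotes the concentration required for 50% inhibition of growth. TGI marks complete inhibition of growth.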

Key:
Assay in all cases: DTP human tumour cell line panel, 48 h
HCT-15 colon = system: HCT-15 colon
A498 renal = system: A498 renal
A549 NSCLC = system: A549 NSCLC
IGROV1 ovarian = system: IGROV1 ovarian
K-562 leukemia = system: K-562 leukemia
HOP-92 NSCLC = system: HOP-92 NSCLC
ACHN renal = system: ACHN renal
SNB-75 CNS = system: SNB-75 CNS
MALME-3M melanoma = system: MALME-3M melanoma
NCI/ADR-RES ovarian = system: NCI/ADR-RES ovarian

Row | SMILES | GI50 (HCT-15 colon) | TGI (HCT-15 colon) | GI50 (A498 renal) | TGI (A498 renal) | GI50 (A549 NSCLC) | TGI (A549 NSCLC) | GI50 (IGROV1 ovarian) | TGI (IGROV1 ovarian) | GI50 (K-562 leukemia) | TGI (K-562 leukemia) | GI50 (HOP-92 NSCLC) | TGI (HOP-92 NSCLC) | GI50 (ACHN renal) | TGI (ACHN renal) | GI50 (SNB-75 CNS) | TGI (SNB-75 CNS) | GI50 (MALME-3M melanoma) | TGI (MALME-3M melanoma) | GI50 (NCI/ADR-RES ovarian) | TGI (NCI/ADR-RES ovarian)
1 | CS(=O)(=O)CCNCc1cc(-c2cc3c(Nc4ccc(OCc5cccc(F)c5)c(Cl)c4)ncnc3s2)cs1 | 5.55 µM | > 20.9 µM | 2.27 µM | > 25 µM | 10.8 µM | > 25 µM | 5.61 µM | > 25 µM | 6.25 µM | 17.8 µM | 4.34 µM | > 25 µM | 7.35 µM | > 25 µM | 7.9 µM | > 25 µM | 19.1 µM | > 25 µM | 11.3 µM | > 25 µM
2 | CC(C)c1cnn2c(NCc3ccccc3)cc(NC[C@H]3CCNC[C@@H]3O)nc12 | 2.94 µM and 2.69 µM | 15.2 µM and 12.2 µM | 1.63 µM and 2.59 µM | 4.2 µM and 8.15 µM | 0.342 µM and 0.272 µM | 11.9 µM and 7.97 µM | 0.252 µM and 0.279 µM | 11 µM and 10.3 µM | 0.409 µM and 0.571 µM | 11.3 µM and > 100 µM | 0.242 µM and 1.31 µM | 4.22 µM and 5.54 µM | 0.833 µM and 1.55 µM | 10.5 µM and 9.73 µM | 0.515 µM and 1.32 µM | 2.04 µM and 2.83 µM | 0.805 µM and 0.3 µM | 2.6 µM and 2.72 µM | 15.4 µM and 19.7 µM | 46.9 µM and > 87.5 µM
3 | O=C1/C(=C/c2cccc(Br)c2)COc2ccc(O)cc21 | 1.95 µM | 7.88 µM | 11.6 µM | 23.9 µM | 4.12 µM | 16.5 µM | 1.92 µM | 4.75 µM | 1.24 µM | 11 µM | 2.65 µM | 13.6 µM | 1.89 µM | 4.16 µM | 1.79 µM | 14.6 µM | 2.36 µM | 6.65 µM | 3.24 µM | 13.5 µM
4 | CCNc1cc(-c2cccc(OC(F)(F)F)c2)nc2ccc(N3CCCC3)cc12 | 1.71 µM | 5.96 µM | 1.07 µM | 2.76 µM | 2.68 µM | 10.5 µM | 1.78 µM | 4.79 µM | 1.43 µM | 4.3 µM | 1.21 µM | 3.24 µM | 2.28 µM | 7.61 µM | 1.53 µM | 4.5 µM | 1.74 µM | 3.36 µM | 1.83 µM | 6.25 µM
5 | CC(C)CCC[C@@H](C)[C@H]1CC[C@H]2[C@@H]3CC[C@H]4C[C@@H](CCC=C(c5cc(Cl)c(O)c(C(=O)O)c5)c5cc(Cl)c(O)c(C(=O)O)c5)CC[C@]4(C)[C@H]3CC[C@]12C | – | > 100 µM | – | > 100 µM | – | > 100 µM | – | > 100 µM | – | > 100 µM | – | > 100 µM | – | > 100 µM | – | > 100 µM | – | > 100 µM | – | > 100 µM
6 | Cc1nc(-c2ccccc2)n2nc(NCCCN3CCOCC3)ncc12 | 12.8 µM | > 25 µM | 6.5 µM | > 25 µM | > 25 µM | > 25 µM | 13.8 µM | > 25 µM | > 25 µM | > 25 µM | 10.6 µM | > 25 µM | 10.4 µM | > 25 µM | > 11.9 µM | > 25 µM | > 17.9 µM | > 25 µM | > 25 µM | > 25 µM
7 | NCCSSCCN | – | > 100 µM | – | > 100 µM | – | > 100 µM | – | > 100 µM | – | > 100 µM | – | > 100 µM | – | > 100 µM | – | > 100 µM | – | > 100 µM | – | > 100 µM
8 | COc1ccccc1C#Cc1ccccc1C#CCCCCO | 19.9 µM | 48.9 µM | 13.3 µM | 27.9 µM | 16.3 µM | 36.5 µM | 15.3 µM | 32.2 µM | 15.5 µM | > 100 µM | 13.7 µM | 31.1 µM | 19.4 µM | 38.6 µM | 12 µM | 26.2 µM | 22.4 µM | 65.6 µM | 21.9 µM | 47.4 µM
9 | Nc1ccccc1C#C/C=C\C#Cc1ccc(OCCCNC(=O)c2cc3ccccc3[nH]2)cc1 | > 100 µM | > 100 µM | 23 µM | 48.3 µM | 11.6 µM | 31.3 µM | 25.5 µM | > 100 µM | 16.1 µM | > 100 µM | 14.4 µM | 37.5 µM | 6.61 µM | 40.9 µM | 11.2 µM | 73.3 µM | 1.08 µM | 18.3 µM | 10.1 µM | > 100 µM
10 | CCCCCCCCCCCCCCCCCC1=NC(C)(C)CN1CC(C)O (stereo not given) | 1.88 µM | 3.95 µM | 15.3 µM | 32.2 µM | 3 µM | 7.12 µM | 10.1 µM | 27.7 µM | 2.45 µM | 5.44 µM | 3.94 µM | 17.8 µM | 7.94 µM | 21.9 µM | 9.11 µM | 23.6 µM | 17.1 µM | 34.4 µM | 3.97 µM | 23.6 µM
11 | COc1ccc(-c2cs/c(=N\N=C\c3ccc(O)cc3O)n2/N=C/c2ccc(O)cc2O)cc1 | 1.73 µM | 5.12 µM | 1.75 µM | 3.81 µM | 1.89 µM | 4.62 µM | 2.67 µM | 6.5 µM | 2.62 µM | > 100 µM | 2.38 µM | 6.51 µM | 1.8 µM | 3.84 µM | 1.58 µM | 3.08 µM | 2.2 µM | 4.79 µM | 2.02 µM | 5.35 µM
